Results from patent publication US20230301993A1, “Low-Dose Ophthalmic Compositions and Methods” (priority 2020, published 2023).
“Also recorded” adds a separate entry of the source.

Tests used:
rabbit eye model [1] = experiment: Pupillometry: effect of single topical ocular administration on pupillary diameter (miotic effect) in rabbit eye model; format: in vivo, Dutch Belted Rabbits
Description: The following examples were performed to determine which active pharmaceutical agent (API), alone or in combination, could effect upon topical administration an approximate 1-2 mm decrease in pupillary diameter with a desirable (e.g., about 4 h) duration of action. Unless stated otherwise, a rabbit animal model was used for the studies. Phentolamine was used as a positive control (comparator API) and caused an approximately 1 mm decrease in the pupil at 0.5% and 1% with a duration of more than 6 hours.
Study design: 3 Dutch Belted Rabbits (pigmented breed)/group received a single ocular administration of test articles (one drop per eye) at 3 concentrations (tested one week apart). After a 2-week rest period, combinations were tested. Ocular irritation was assessed using a modified Draize test. Intraocular pressure (IOP) was measured at baseline, 1 h, 4 h, 6 h and 24 hours. Pupillary Diameter was measured at baseline, 15 min, 1 h, 4 h and 6 h after dosing. Due to the variation in pupillary diameter and IOP between rabbits and between eyes within rabbits, the data for pupillary diameter and IOP were normalized and presented with error bars (SD). A change of 15% to 20% approximates a pupillary diameter change of 1 mm. […]

rabbit eye model [2] = experiment: Effect of benzalkonium chloride on the miotic effect of carbachol; format: in vivo
Text: In still further experiments, the inventors investigated the effect of benzalkonium chloride on the miotic effect of carbachol. To that end, different concentrations of BAC were employed between 0.005% and 0.02% at carbachol concentrations between 0.025% and 0.075%, and the results are shown in FIGS. 6A-6C. […] As BAK is believed to increase permeability of the respective agents across the corneal tissue, addition of BAK at concentrations up to 0.05% may advantageously increase miotic effect at otherwise identical drug concentration. Thus, BAK may enhance the miotic action of brimonidine, rivastigmine, galantamine, and carbachol, which may in turn allow for reduced drug concentrations and/or increased miotic effect without unduly extending the duration of the miotic effect.

`C[N+](C)(C)CCOC(N)=O` [carbachol] was tested, and the “duration of action (miotic effect)” value (rabbit eye model [1]; carbachol, even at lowest dose (about 0.075%), rabbit) was 2 to 4 h and the “miotic effect (potency in words)” value (rabbit eye model [1]; even at the lowest dose / low concentration of about 0.075%, rabbit (FIG. 5)) was “very potent”.

In the case of `Brc1c(N=C2NCCN2)ccc2nccnc12.O=C(O)C(O)C(O)C(=O)O` [Brimonidine, 5-Bromo-6-(2-imidazolidinylideneamino) quinoxaline L-tartrate], the “miotic effect on pupillary diameter” value (rabbit eye model [1]; at doses tested, rabbit) is reported as “little to no effect”, the “miotic effect on pupillary diameter” value (rabbit eye model [1]; doses at or below 0.1%, rabbit (FIG. 2), L-tartrate) is reported as “some miotic effect; also recorded: moderate effect” and the “miotic effect on pupillary diameter” value (rabbit eye model [1]; higher doses tested, at or above 0.2%, rabbit (FIG. 2)) is reported as “little to no effect”.

For `CCN(C)C(=O)Oc1cccc(C(C)N(C)C)c1` (stereo not drawn) [Rivastigmine, N-ethyl-3-[1-dimethylamino)ethyl]-N-methylphenyl carbamate], the decrease in pupil (rabbit eye model [1]; concentration of about 1%, alone, rabbit) was 1 mm and the “miotic effect on pupillary diameter (comparison in words)” value (rabbit eye model [1]; concentration of about 1%, alone, rabbit (FIG. 3A)) was “substantially similar to phentolamine”.

With “N-Alkyl-N-benzyl-N,N-dimethyl-ammonium chloride [BAC]” the “effect of BAC on miotic effect of carbachol” value (from here on “effect of BAC”) (rabbit eye model [2]; BAC 0.005%, at 1 hr, higher carbachol concentration (FIG. 6A)) was “some effect”, the “effect of BAC” value (rabbit eye model [2]; BAC 0.005%, carbachol 0.025%-0.075% (FIG. 6A)) was “minimal effect” and the “effect of BAC” value (rabbit eye model [2]; BAC 0.01%, carbachol 0.025%-0.075% (FIG. 6B)) was “somewhat more pronounced”. The “effect of BAC” value (rabbit eye model [2]; BAC at least 0.02%, carbachol 0.025%-0.075% (FIG. 6C)) was “significant”.

`Br.COc1ccc2c3c1O[C@H]1C[C@@H](O)C=C[C@@]31CCN(C)C2` [Galantamine, galantamine] was tested, and the decrease in pupil (rabbit eye model [1]; concentration of about 2%, alone, rabbit) was 1-2 mm and the “duration of reduction in pupillary diameter (lasted at least)” value (rabbit eye model [1]; high dose (2%), rabbit (FIG. 4A)) was “at least 1 h”.

For `Cc1ccc(N(CC2=NCCN2)c2cccc(O)c2)cc1` [Phentolamine], the “duration of reduction in pupillary diameter” value (rabbit eye model [1]; all doses, topical, rabbit (FIG. 1)) was “at least 6 h” and the “decrease in the pupil” value (rabbit eye model [1]; at 0.5% and 1%, topical, one drop per eye, rabbit) was “approximately 1 mm”.
